Experimental data from PubChem BioAssay (NCI).
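In this assay, cells in 96-well plates receive the compound at five concentrations for 48 hours. Endpoints are linearly interpolated between the surrounding concentrations. TGI: concentration producing complete growth inhibition.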

Tests used:
Test in all cases: DTP human tumour cell line panel, 48 h
[1] = test system: MCF7 breast
[2] = test system: U251 CNS
[3] = test system: MDA-MB-435
[4] = test system: HS 578T breast
[5] = test system: SK-MEL-5 melanoma
[6] = test system: TK-10 renal
[7] = test system: OVCAR-3 ovarian
[8] = test system: K-562 leukemia
[9] = test system: SF-295 CNS
[10] = test system: SW-620 colon
[11] = test system: NCI-H226 lung
[12] = test system: NCI-H23 lung
[13] = test system: MALME-3M melanoma
[14] = test system: A549 NSCLC
[15] = test system: IGROV1 ovarian
[16] = test system: 786-0 renal
[17] = test system: UACC-62 melanoma
[18] = test system: SK-MEL-2 melanoma
[19] = test system: UO-31 renal
[20] = test system: RPMI-8226 leukemia
[21] = test system: SNB-75 CNS
[22] = test system: ACHN renal
[23] = test system: CAKI-1 renal
[24] = test system: M14 melanoma
[25] = test system: UACC-257 melanoma
[26] = test system: HL-60(TB) leukemia
[27] = test system: PC-3 prostate
[28] = test system: HCT-116 colon
[29] = test system: T-47D breast
[30] = test system: HCC-2998 colon
[31] = test system: SF-539 CNS
[32] = test system: SN12C renal
[33] = test system: COLO 205 colon
[34] = test system: CCRF-CEM leukemia
[35] = test system: HOP-92 NSCLC
[36] = test system: SR leukemia
[37] = test system: MDA-N
[38] = test system: HCT-15 colon
[39] = test system: NCI/ADR-RES ovarian
[40] = test system: EKVX NSCLC
[41] = test system: NCI-H522 lung
[42] = test system: SF-268 CNS
[43] = test system: SNB-19 CNS
[44] = test system: SK-OV-3 ovarian
[45] = test system: A498 renal
[46] = test system: SK-MEL-28 melanoma
[47] = test system: MOLT-4 leukemia
[48] = test system: KM12 colon
[49] = test system: HOP-62 NSCLC
[50] = test system: OVCAR-5 ovarian
[51] = test system: OVCAR-4 ovarian
[52] = test system: OVCAR-8 ovarian
[53] = test system: HT29 colon
[54] = test system: DU-145 prostate
[55] = test system: MDA-MB-231 breast
[56] = test system: RXF 393 renal
[57] = test system: NCI-H460 lung
[58] = test system: LOX IMVI melanoma

CN(C)CCCOC(=O)C(c1ccccc1)C1(O)CCSCC1 (stereo not given)
TGI [1]: > 100 µM
TGI [2]: > 100 µM
TGI [3]: > 100 µM
TGI [4]: > 100 µM
TGI [5]: > 100 µM
TGI [6]: > 100 µM
TGI [7]: > 100 µM
TGI [8]: > 100 µM
TGI [9]: > 100 µM
TGI [10]: > 100 µM
TGI [11]: > 100 µM
TGI [12]: > 100 µM
TGI [13]: > 100 µM
TGI [14]: > 100 µM
TGI [15]: > 100 µM
TGI [16]: > 100 µM
TGI [17]: > 100 µM
TGI [18]: > 100 µM
TGI [19]: > 100 µM
TGI [20]: > 100 µM
TGI [21]: > 100 µM
TGI [22]: > 100 µM
TGI [23]: > 100 µM
TGI [24]: > 100 µM
TGI [25]: > 100 µM
TGI [26]: > 100 µM
TGI [27]: > 100 µM
TGI [28]: > 100 µM
TGI [29]: > 100 µM
TGI [30]: > 100 µM
TGI [31]: > 100 µM
TGI [32]: > 100 µM
TGI [33]: > 100 µM
TGI [34]: > 100 µM
TGI [35]: > 100 µM
TGI [36]: > 100 µM
TGI [37]: > 100 µM
TGI [38]: > 100 µM
TGI [39]: > 100 µM
TGI [40]: > 100 µM
TGI [41]: > 100 µM
TGI [42]: > 100 µM
TGI [43]: 78.6 µM
TGI [44]: > 100 µM
TGI [45]: > 100 µM
TGI [46]: > 100 µM
TGI [47]: > 100 µM
TGI [48]: > 100 µM
TGI [49]: > 100 µM
TGI [50]: > 100 µM
TGI [51]: > 100 µM
TGI [52]: > 100 µM
TGI [53]: > 100 µM
TGI [54]: > 100 µM
TGI [55]: > 100 µM
TGI [56]: > 100 µM
TGI [57]: > 100 µM
TGI [58]: > 100 µM

Cc1nnc(Nc2ccccc2)o1
TGI [1]: > 100 µM
TGI [2]: > 100 µM
TGI [3]: > 100 µM
TGI [5]: > 100 µM
TGI [6]: > 100 µM
TGI [7]: > 100 µM
TGI [8]: > 100 µM
TGI [9]: > 100 µM
TGI [10]: > 100 µM
TGI [11]: > 100 µM
TGI [12]: > 100 µM
TGI [13]: > 100 µM
TGI [14]: > 100 µM
TGI [16]: > 100 µM
TGI [17]: > 100 µM
TGI [18]: > 100 µM
TGI [19]: > 100 µM
TGI [20]: > 100 µM
TGI [21]: > 100 µM
TGI [22]: > 100 µM
TGI [23]: > 100 µM
TGI [24]: > 100 µM
TGI [25]: > 100 µM
TGI [26]: > 100 µM
TGI [27]: > 100 µM
TGI [28]: > 100 µM
TGI [29]: > 100 µM
TGI [31]: > 100 µM
TGI [32]: > 100 µM
TGI [33]: > 100 µM
TGI [34]: > 100 µM
TGI [36]: > 100 µM
TGI [37]: > 100 µM
TGI [38]: > 100 µM
TGI [39]: > 100 µM
TGI [40]: > 100 µM
TGI [41]: > 100 µM
TGI [42]: > 100 µM
TGI [43]: > 100 µM
TGI [44]: > 100 µM
TGI [46]: > 100 µM
TGI [47]: > 100 µM
TGI [48]: > 100 µM
TGI [50]: > 100 µM
TGI [51]: > 100 µM
TGI [52]: > 100 µM
TGI [53]: > 100 µM
TGI [54]: > 100 µM
TGI [56]: > 100 µM
TGI [58]: > 100 µM

O=C1CCC[C@@H]2NC[C@@H](c3ccc4c(c3)OCO4)[C@H]12
TGI [1]: > 25 µM
TGI [2]: > 25 µM
TGI [3]: > 25 µM
TGI [4]: > 25 µM
TGI [5]: > 25 µM
TGI [6]: > 25 µM
TGI [8]: > 25 µM
TGI [9]: > 25 µM
TGI [11]: > 25 µM
TGI [12]: > 25 µM
TGI [13]: > 25 µM
TGI [14]: > 25 µM
TGI [15]: > 25 µM
TGI [16]: > 25 µM
TGI [17]: > 25 µM
TGI [18]: > 25 µM
TGI [19]: > 25 µM
TGI [20]: > 25 µM
TGI [21]: > 25 µM
TGI [22]: > 25 µM
TGI [23]: > 25 µM
TGI [24]: > 25 µM
TGI [25]: > 25 µM
TGI [26]: > 25 µM
TGI [27]: > 25 µM
TGI [28]: > 25 µM
TGI [29]: > 25 µM
TGI [30]: > 25 µM
TGI [32]: > 25 µM
TGI [33]: > 25 µM
TGI [34]: > 25 µM
TGI [35]: > 25 µM
TGI [36]: > 25 µM
TGI [37]: > 25 µM
TGI [38]: > 25 µM
TGI [39]: > 25 µM
TGI [40]: > 25 µM
TGI [41]: > 25 µM
TGI [42]: > 25 µM
TGI [43]: > 25 µM
TGI [44]: > 25 µM
TGI [45]: > 25 µM
TGI [46]: > 25 µM
TGI [47]: > 25 µM
TGI [48]: > 25 µM
TGI [49]: > 25 µM
TGI [50]: > 25 µM
TGI [51]: > 25 µM
TGI [52]: > 25 µM
TGI [53]: > 25 µM
TGI [54]: > 25 µM
TGI [55]: > 25 µM
TGI [56]: > 25 µM
TGI [57]: > 25 µM
TGI [58]: > 25 µM

CC(O[Si](c1ccccc1)(c1ccccc1)C(C)(C)C)[C@H](NC(=O)OC(C)(C)C)C(=O)O[Si](c1ccccc1)(c1ccccc1)C(C)(C)C (stereo not given in full)
TGI [1]: 48.6 µM
TGI [2]: 31.7 µM
TGI [4]: 44.4 µM
TGI [5]: 30.9 µM
TGI [6]: 31.1 µM
TGI [8]: 40.6 µM
TGI [9]: 21.4 µM
TGI [10]: 32.1 µM
TGI [12]: 26.1 µM
TGI [13]: 34.3 µM
TGI [14]: 27.9 µM
TGI [15]: 31.9 µM
TGI [16]: 25.9 µM
TGI [19]: 26.3 µM
TGI [20]: 62.6 µM
TGI [21]: 29 µM
TGI [22]: 23.9 µM
TGI [23]: 27 µM
TGI [24]: 29.4 µM
TGI [25]: 28.8 µM
TGI [26]: 31 µM
TGI [27]: 20.5 µM
TGI [28]: 23.7 µM
TGI [29]: 25.7 µM
TGI [30]: 34.7 µM
TGI [33]: 31.3 µM
TGI [34]: 76.6 µM
TGI [35]: 23.2 µM
TGI [36]: 82 µM
TGI [37]: 34.1 µM
TGI [38]: 18.8 µM
TGI [39]: 29 µM
TGI [40]: 26.4 µM
TGI [42]: 31.1 µM
TGI [43]: 29.8 µM
TGI [44]: 30 µM
TGI [46]: 28.5 µM
TGI [47]: 53.1 µM
TGI [48]: 24.3 µM
TGI [49]: 34.2 µM
TGI [50]: 30.4 µM
TGI [51]: 16.5 µM
TGI [52]: 33.6 µM
TGI [53]: 23.9 µM
TGI [54]: 25.6 µM
TGI [56]: 26.9 µM
TGI [57]: 25.5 µM
